Results: US11541105B2, “Compositions and methods for disrupting biofilm formation and maintenance” (The Research Foundation for the State University of new York, priority 2018, dated 2023)

How the values were obtained:
P. aeruginosa biofilms [1] = test: Biofilm dispersion in 24-well plates, crystal violet staining of remaining biofilm biomass; assay type: cell-based, Pseudomonas aeruginosa; settings: controls: heat-inactivated PDH increasing concentrations; cofactors; acetyl-CoA 0.2 mM; NADH 2 mM; lactate 10 mM
Description: P. aeruginosa biofilms grown for 4 days in 24-well plates were exposed to pyruvate-depleting conditions. This was accomplished by exposing biofilms to increasing concentration of the enzyme pyruvate dehydrogenase (PDH) having a specific activity of 0.57 U/mg. PDH catalyzes the conversion of pyruvate to acetyl-CoA in the presence of CoA and NAD^+. Specifically, biofilms were exposed to 5, 10, and 20 mU (8.7, 17.4, and 32.8 mg enzyme) of PDH in the presence of NAD^+ and CoA. Biofilms grown in LB but left untreated were used as controls. Following overnight incubation, the remaining biofilm was stained using crystal violet.
Biofilms were grown in a 24-well plate system modified from the procedure described by Caiazza and O'Toole (2004) to elucidate the role of pyruvate in biofilm formation and biofilm dispersion.
Overnight cultures grown in LB medium were adjusted to an OD600 of 0.05 in fresh 5-fold diluted LB VBMM and grown at 37° C. and rotated at 220 r.p.m. in 24-well microtiter plates at a 45° angle, ensuring that the bottom of the wells is at the air-liquid interface, with the medium exchanged every 12 h.
For biofilm dispersion, biofilms were first grown for 4 days after which time the growth medium was supplemented with 10 mU porcine pyruvate dehydrogenase, cofactors (1 mM b-NAD, 1 mM sodium Co-A, 20 μM TPP) and allowed to incubate for an additional 16 h.

P. aeruginosa ATCC 27312 = test: Porcine burn wound biofilm infection model; assay type: in vivo, Pseudomonas aeruginosa
Description: The well-known clinical burn wound isolate P. aeruginosa ATCC 27312 was employed.
Burn wounds were inoculated with 25 μl of a standardized P. aeruginosa suspension harboring 10^6 CFU/ml and allowed to establish biofilms for 24 h. Infected wounds were subsequently treated daily with 100 and 200 mU PDH in the absence of presence of 100 μg/ml tobramycin. Untreated wounds and wounds only exposed to carrier solution were used as controls. Following 3 and 6 days of treatment, bacterial cells present in wounds were harvested using a flush and scrub technique that separates biofilm bacteria from planktonic bacteria, by flushing the non-adherent (planktonic) bacteria off the wound, followed by scrubbing of the wound to remove adherent biofilm-associated bacteria from the wound bed.
Second degree porcine burn wounds were infected with P. aeruginosa ATCC® 27312™. […] Then, bacterial cells were removed from the wounds and the number of viable cells, as shown in (CFU) per wound determined using viability counts. […] Experiments are representative data obtained using 3 wounds per treatment group (n=3). Error bars represent standard deviation.

P. aeruginosa biofilms [2] = test: Biofilm susceptibility assay, viability count; assay type: cell-based, Pseudomonas aeruginosa; settings: 4-day biofilms, tobramycin 100 μg/ml, PDH 10 mU where present, overnight
Description: It is well established that planktonic cells are more susceptible to antimicrobial agents than their counterparts growing as a biofilm, and that dispersion coincides with bacteria transitioning to the planktonic mode of growth. […] P. aeruginosa biofilms grown for 4 days in 24-well plates were exposed to 100 μg/ml tobramycin in the absence of presence of PDH. Following overnight incubation, the number of viable biofilm cells were determined using viability count. […] Tobramycin in the presence of 10 mU PDH coincided with a reduction in the biofilm biomass to 3.5×10^3 cells/biofilm (FIG. 12A), with the reduction in the viable cells being equivalent to an overall 5.9-log reduction in the biofilm biomass relative to untreated biofilms. […] For susceptibility assays, biofilms were grown as for dispersion assays, but following 4 days of growth, the growth medium was supplemented the aminoglycoside antibiotic tobramycin (100 μg/ml), 10 mU porcine pyruvate dehydrogenase, and cofactors (1 mM b-NAD, 1 mM sodium Co-A, 20 μM TPP). Untreated biofilms or biofilms only exposed to cofactors alone were used as controls. Differences in the biofilm architecture were visualized by crystal violet staining or microscopy (brightfield, confocal laser scanning). Differences in drug susceptibility were evaluated by viability count.

P. aeruginosa biofilms [3] = test: Microscopy (confocal, brightfield) of biofilm architecture and microcolony void formation; assay type: cell-based, Pseudomonas aeruginosa; settings: 4-day biofilms, PDH 10 mU plus 500 uM SNP as NO source, 16 h
Text: To determine how exposure to PDH accomplished a reduction in the biofilm biomass, the remaining biofilm architecture was visually analyzed by confocal microscopy. Relative to untreated biofilms, biofilms exposed to PDH were not only characterized by an overall reduced biofilm biomass but by microcolonies having central voids (FIGS. 2E3 and 2F2). Void formation has previously linked with biofilm dispersion, a process in which sessile, surface-attached organisms liberate themselves from the biofilm to return to the planktonic state. […] In contrast, the vast majority of microcolonies by untreated biofilms were intact (FIG. 2E1), with only less than 8% of the microcolonies featuring central void formation (FIG. 2G). […]
Differences in the biofilm architecture were visualized by crystal violet staining or microscopy (brightfield, confocal laser scanning). Differences in drug susceptibility were evaluated by viability count.
FIGS. 15A-15F show the effect of PDH nanoparticles (NP) on biofilms. […] Biofilm biomass was quantitatively determined by confocal microscopy and COMSTAT analysis prior/post 24 h PDH treatment. […]
Biofilms were grown for 4 days in 24-well polystyrene plates in five-fold diluted LB. […] Number of microcolonies as percent of the total colonies counted per treatment group is shown. […]

SMILES: NC(=O)c1ccc[n+]([C@@H]2O[C@H](COP(=O)([O-])OP(=O)(O)OC[C@H]3O[C@@H](n4cnc5c(N)ncnc54)[C@H](O)[C@@H]3O)[C@@H](O)[C@H]2O)c1 [NAD+]
- effect on biofilm biomass relative to untreated biofilms (P. aeruginosa biofilms [1]): no effect

SMILES: NC[C@H]1O[C@H](O[C@H]2[C@H](O)[C@@H](O[C@H]3O[C@H](CO)[C@@H](O)[C@H](N)[C@H]3O)[C@H](N)C[C@@H]2N)[C@H](N)C[C@@H]1O [tobramycin]
- log reduction of P. aeruginosa biofilms present in porcine burn wounds (P. aeruginosa ATCC 27312; as stated in the summary, tobramycin with or without pyruvate-depleting conditions): 2.5 log
- log reduction in viable biofilm cells (scrub) relative to untreated (P. aeruginosa ATCC 27312; tobramycin 100 μg/ml daily): 2 log
- log reduction of the biofilm biomass (viable cells) relative to untreated (P. aeruginosa biofilms [2]): 2.5 log
- number of viable cells remaining (P. aeruginosa biofilms [2]; untreated 2.4×10^8): 1.2×10^5 cells per biofilm

SMILES: NC(=O)C1=CN([C@@H]2O[C@H](COP(=O)(O)OP(=O)(O)OC[C@H]3O[C@@H](n4cnc5c(N)ncnc54)[C@H](O)[C@@H]3O)[C@@H](O)[C@H]2O)C=CC1 [NADH]
- effect on biofilm biomass relative to untreated biofilms (P. aeruginosa biofilms [1]): did not result in increased biofilm biomass accumulation

SMILES: CC(=O)SCCNC(=O)CCNC(=O)[C@H](O)C(C)(C)COP(=O)(O)OP(=O)(O)OC[C@H]1O[C@@H](n2cnc3c(N)ncnc32)[C@H](O)[C@@H]1OP(=O)(O)O [acetyl-CoA]
- effect on biofilm biomass relative to untreated biofilms (P. aeruginosa biofilms [1]): did not result in increased biofilm biomass accumulation

SMILES: [N]=O [nitric oxide]
- effect on PDH-induced dispersion of biofilms (microcolonies with void formation) (P. aeruginosa biofilms [3]): can enhance

SMILES: CC(O)C(=O)O (stereo not drawn) [lactate]
- effect on biofilm biomass relative to untreated biofilms (P. aeruginosa biofilms [1]): no difference
